Assay results: the NIST ThermoML archive (doi:10.1021/je200822w)
Numbers after ± are expanded uncertainties.

Assay: activity coefficient (dimensionless); of the first substance listed, at infinite dilution; xn = mol fraction of the nth substance listed
Conditions: 333.15 K; 101 kPa; Liquid; Chromatography; x1 = 0

| Compound | activity coefficient |
| --- | --- |
| COC(C)=O [methyl ethanoate] + CCCC[N+]1(C)CCCC1.N#CN=C=[N-] | 1.56 ± 0.1 |
| CC1CCCCC1 [methylcyclohexane] + CCCC[N+]1(C)CCCC1.N#CN=C=[N-] | 30 ± 2.1 |
| C[N+](=O)[O-] [nitromethane] + CCCC[N+]1(C)CCCC1.N#CN=C=[N-] | 0.604 ± 0.042 |
| CC(C)O [propan-2-ol] + CCCC[N+]1(C)CCCC1.N#CN=C=[N-] | 0.746 ± 0.049 |
| ClC(Cl)(Cl)Cl [tetrachloromethane] + CCCC[N+]1(C)CCCC1.N#CN=C=[N-] | 2.25 ± 0.15 |
| C1CCOC1 [tetrahydrofuran] + CCCC[N+]1(C)CCCC1.N#CN=C=[N-] | 1.42 ± 0.09 |
| c1ccsc1 [thiophene] + CCCC[N+]1(C)CCCC1.N#CN=C=[N-] | 0.901 ± 0.057 |
| Cc1ccccc1 [toluene] + CCCC[N+]1(C)CCCC1.N#CN=C=[N-] | 2.26 ± 0.15 |

The next lines start with the values.

| activity coefficient | Compound |
| --- | --- |
| 44.4 ± 3 | C=CCCCCCC [oct-1-ene] + CCCC[N+]1(C)CCCC1.N#CN=C=[N-] |
| 102 ± 7 | CCCCCCCC [octane] + CCCC[N+]1(C)CCCC1.N#CN=C=[N-] |
| 0.668 ± 0.045 | CCCO [propan-1-ol] + CCCC[N+]1(C)CCCC1.N#CN=C=[N-] |
| 0.453 ± 0.036 | ClC(Cl)Cl [trichloromethane] + CCCC[N+]1(C)CCCC1.N#CN=C=[N-] |

Same assay, conditions: 343.15 K; 101 kPa; Liquid; Chromatography; x1 = 0

| Compound | activity coefficient |
| --- | --- |
| Cc1cccc(C)c1 [1,3-dimethylbenzene] + CCCC[N+]1(C)CCCC1.N#CN=C=[N-] | 3.61 ± 0.25 |
| COC(C)(C)C [2-methoxy-2-methylpropane] + CCCC[N+]1(C)CCCC1.N#CN=C=[N-] | 6.4 ± 0.44 |
| CC(C)=O [acetone] + CCCC[N+]1(C)CCCC1.N#CN=C=[N-] | 0.963 ± 0.061 |
| CC#N [acetonitrile] + CCCC[N+]1(C)CCCC1.N#CN=C=[N-] | 0.684 ± 0.046 |
| CCC(C)=O [butanone] + CCCC[N+]1(C)CCCC1.N#CN=C=[N-] | 1.33 ± 0.09 |
| COC(C)=O [methyl ethanoate] + CCCC[N+]1(C)CCCC1.N#CN=C=[N-] | 1.59 ± 0.11 |
| CC1CCCCC1 [methylcyclohexane] + CCCC[N+]1(C)CCCC1.N#CN=C=[N-] | 28.4 ± 1.9 |
| C[N+](=O)[O-] [nitromethane] + CCCC[N+]1(C)CCCC1.N#CN=C=[N-] | 0.609 ± 0.043 |
| CC(C)O [propan-2-ol] + CCCC[N+]1(C)CCCC1.N#CN=C=[N-] | 0.733 ± 0.049 |
| ClC(Cl)(Cl)Cl [tetrachloromethane] + CCCC[N+]1(C)CCCC1.N#CN=C=[N-] | 2.38 ± 0.16 |
| C1CCOC1 [tetrahydrofuran] + CCCC[N+]1(C)CCCC1.N#CN=C=[N-] | 1.46 ± 0.1 |
| c1ccsc1 [thiophene] + CCCC[N+]1(C)CCCC1.N#CN=C=[N-] | 0.931 ± 0.059 |
| Cc1ccccc1 [toluene] + CCCC[N+]1(C)CCCC1.N#CN=C=[N-] | 2.3 ± 0.16 |

Continued, values first:

| activity coefficient | Compound |
| --- | --- |
| 1.39 ± 0.09 | COCCOC [1,2-dimethoxyethane] + CCCC[N+]1(C)CCCC1.N#CN=C=[N-] |
| 0.776 ± 0.051 | FC(F)(F)C(Cl)Br (centres undefined) [1-bromo-1-chloro-2,2,2-trifluoroethane] + CCCC[N+]1(C)CCCC1.N#CN=C=[N-] |
| 1.49 ± 0.1 | c1ccccc1 [benzene] + CCCC[N+]1(C)CCCC1.N#CN=C=[N-] |
| 18.5 ± 1.3 | C1CCCCC1 [cyclohexane] + CCCC[N+]1(C)CCCC1.N#CN=C=[N-] |
| 0.623 ± 0.043 | ClCCl [dichloromethane] + CCCC[N+]1(C)CCCC1.N#CN=C=[N-] |
| 17.9 ± 1.2 | CC(C)OC(C)C [diisopropyl ether] + CCCC[N+]1(C)CCCC1.N#CN=C=[N-] |
| 1.31 ± 0.09 | COC(=O)OC [dimethyl carbonate] + CCCC[N+]1(C)CCCC1.N#CN=C=[N-] |
| 0.53 ± 0.039 | CCO [ethanol] + CCCC[N+]1(C)CCCC1.N#CN=C=[N-] |
| 2.43 ± 0.17 | CCOC(C)=O [ethyl acetate] + CCCC[N+]1(C)CCCC1.N#CN=C=[N-] |
| 3.65 ± 0.25 | CCc1ccccc1 [ethylbenzene] + CCCC[N+]1(C)CCCC1.N#CN=C=[N-] |
| 42.2 ± 2.9 | CCC1CCCCC1 [ethylcyclohexane] + CCCC[N+]1(C)CCCC1.N#CN=C=[N-] |
| 64.7 ± 4.4 | CCCCCCC [heptane] + CCCC[N+]1(C)CCCC1.N#CN=C=[N-] |
| 0.347 ± 0.032 | CO [methanol] + CCCC[N+]1(C)CCCC1.N#CN=C=[N-] |
| 42.4 ± 2.9 | C=CCCCCCC [oct-1-ene] + CCCC[N+]1(C)CCCC1.N#CN=C=[N-] |
| 95.2 ± 6.5 | CCCCCCCC [octane] + CCCC[N+]1(C)CCCC1.N#CN=C=[N-] |
| 0.656 ± 0.045 | CCCO [propan-1-ol] + CCCC[N+]1(C)CCCC1.N#CN=C=[N-] |
| 0.496 ± 0.038 | ClC(Cl)Cl [trichloromethane] + CCCC[N+]1(C)CCCC1.N#CN=C=[N-] |

Same assay, conditions: 353.13 K; 101 kPa; Liquid; Chromatography; x1 = 0

| activity coefficient | Compound |
| --- | --- |
| 1.46 ± 0.1 | COCCOC [1,2-dimethoxyethane] + CCCC[N+]1(C)CCCC1.N#CN=C=[N-] |

Same assay, conditions: 353.15 K; 101 kPa; Liquid; Chromatography; x1 = 0

| Compound | activity coefficient |
| --- | --- |
| Cc1cccc(C)c1 [1,3-dimethylbenzene] + CCCC[N+]1(C)CCCC1.N#CN=C=[N-] | 3.67 ± 0.25 |
| COC(C)(C)C [2-methoxy-2-methylpropane] + CCCC[N+]1(C)CCCC1.N#CN=C=[N-] | 6.53 ± 0.45 |
| CC(C)=O [acetone] + CCCC[N+]1(C)CCCC1.N#CN=C=[N-] | 0.986 ± 0.062 |
| CC#N [acetonitrile] + CCCC[N+]1(C)CCCC1.N#CN=C=[N-] | 0.687 ± 0.046 |
| CCC(C)=O [butanone] + CCCC[N+]1(C)CCCC1.N#CN=C=[N-] | 1.35 ± 0.09 |
| COC(C)=O [methyl ethanoate] + CCCC[N+]1(C)CCCC1.N#CN=C=[N-] | 1.63 ± 0.11 |
| CC1CCCCC1 [methylcyclohexane] + CCCC[N+]1(C)CCCC1.N#CN=C=[N-] | 27.1 ± 1.9 |
| C[N+](=O)[O-] [nitromethane] + CCCC[N+]1(C)CCCC1.N#CN=C=[N-] | 0.615 ± 0.043 |
| CC(C)O [propan-2-ol] + CCCC[N+]1(C)CCCC1.N#CN=C=[N-] | 0.724 ± 0.048 |
| ClC(Cl)(Cl)Cl [tetrachloromethane] + CCCC[N+]1(C)CCCC1.N#CN=C=[N-] | 2.5 ± 0.17 |
| C1CCOC1 [tetrahydrofuran] + CCCC[N+]1(C)CCCC1.N#CN=C=[N-] | 1.49 ± 0.1 |
| c1ccsc1 [thiophene] + CCCC[N+]1(C)CCCC1.N#CN=C=[N-] | 0.962 ± 0.06 |
| Cc1ccccc1 [toluene] + CCCC[N+]1(C)CCCC1.N#CN=C=[N-] | 2.35 ± 0.16 |

Second part, the molecule after the results:

| activity coefficient | Compound |
| --- | --- |
| 0.866 ± 0.055 | FC(F)(F)C(Cl)Br (centres undefined) [1-bromo-1-chloro-2,2,2-trifluoroethane] + CCCC[N+]1(C)CCCC1.N#CN=C=[N-] |
| 1.53 ± 0.1 | c1ccccc1 [benzene] + CCCC[N+]1(C)CCCC1.N#CN=C=[N-] |
| 17.7 ± 1.2 | C1CCCCC1 [cyclohexane] + CCCC[N+]1(C)CCCC1.N#CN=C=[N-] |
| 0.655 ± 0.045 | ClCCl [dichloromethane] + CCCC[N+]1(C)CCCC1.N#CN=C=[N-] |
| 17.9 ± 1.2 | CC(C)OC(C)C [diisopropyl ether] + CCCC[N+]1(C)CCCC1.N#CN=C=[N-] |
| 1.33 ± 0.09 | COC(=O)OC [dimethyl carbonate] + CCCC[N+]1(C)CCCC1.N#CN=C=[N-] |
| 0.525 ± 0.039 | CCO [ethanol] + CCCC[N+]1(C)CCCC1.N#CN=C=[N-] |
| 2.47 ± 0.17 | CCOC(C)=O [ethyl acetate] + CCCC[N+]1(C)CCCC1.N#CN=C=[N-] |
| 3.69 ± 0.25 | CCc1ccccc1 [ethylbenzene] + CCCC[N+]1(C)CCCC1.N#CN=C=[N-] |
| 39.6 ± 2.7 | CCC1CCCCC1 [ethylcyclohexane] + CCCC[N+]1(C)CCCC1.N#CN=C=[N-] |
| 60.9 ± 4.2 | CCCCCCC [heptane] + CCCC[N+]1(C)CCCC1.N#CN=C=[N-] |
| 0.348 ± 0.032 | CO [methanol] + CCCC[N+]1(C)CCCC1.N#CN=C=[N-] |
| 40.8 ± 2.8 | C=CCCCCCC [oct-1-ene] + CCCC[N+]1(C)CCCC1.N#CN=C=[N-] |
| 89.2 ± 6.1 | CCCCCCCC [octane] + CCCC[N+]1(C)CCCC1.N#CN=C=[N-] |
| 0.647 ± 0.044 | CCCO [propan-1-ol] + CCCC[N+]1(C)CCCC1.N#CN=C=[N-] |
| 0.54 ± 0.039 | ClC(Cl)Cl [trichloromethane] + CCCC[N+]1(C)CCCC1.N#CN=C=[N-] |

Assay: not given
Conditions: 283.15 K; 101.33 kPa; Liquid

| mass density | Compound |
| --- | --- |
| 1021.93 ± 0.57 kg/m3 | CCCC[N+]1(C)CCCC1.N#CN=C=[N-] [1-butyl-1-methylpyrrolidinium dicyanamide] |

Same assay, conditions: 293.15 K; 101.33 kPa; Liquid

| mass density | Compound |
| --- | --- |
| 1016.26 ± 0.55 kg/m3 | CCCC[N+]1(C)CCCC1.N#CN=C=[N-] [1-butyl-1-methylpyrrolidinium dicyanamide] |

Same assay, conditions: 303.15 K; 101.33 kPa; Liquid

| mass density | Compound |
| --- | --- |
| 1010.64 ± 0.53 kg/m3 | CCCC[N+]1(C)CCCC1.N#CN=C=[N-] [1-butyl-1-methylpyrrolidinium dicyanamide] |

Same assay, conditions: 313.15 K; 101.33 kPa; Liquid

| mass density | Compound |
| --- | --- |
| 1005.08 ± 0.51 kg/m3 | CCCC[N+]1(C)CCCC1.N#CN=C=[N-] [1-butyl-1-methylpyrrolidinium dicyanamide] |

Same assay, conditions: 323.15 K; 101.33 kPa; Liquid

| mass density | Compound |
| --- | --- |
| 999.56 ± 0.5 kg/m3 | CCCC[N+]1(C)CCCC1.N#CN=C=[N-] [1-butyl-1-methylpyrrolidinium dicyanamide] |

Same assay, conditions: 333.15 K; 101.33 kPa; Liquid

| mass density | Compound |
| --- | --- |
| 994.1 ± 0.51 kg/m3 | CCCC[N+]1(C)CCCC1.N#CN=C=[N-] [1-butyl-1-methylpyrrolidinium dicyanamide] |

Same assay, conditions: 343.15 K; 101.33 kPa; Liquid

| mass density | Compound |
| --- | --- |
| 988.69 ± 0.53 kg/m3 | CCCC[N+]1(C)CCCC1.N#CN=C=[N-] [1-butyl-1-methylpyrrolidinium dicyanamide] |
